Key:
[1] = reference products of the interpretation scale; cited from earlier work
[2] = Antioxidant capacity by chemiluminescence (Photochem Analytik Jena); format: biochemical; conditions: superoxide anion trapping
Procedure: This test is used to determine the antioxidant capacity of molecules. It is a method that generates free radicals by a photochemical signal. The intensity of the oxidation is 1000 times greater than those obtained under normal conditions.
The detection is performed by chemiluminescence. It enables the evaluation of hydrosoluble and liposoluble antioxidant molecules or extracts.
The results are expressed respectively in equivalent quantity of vitamin C or Trolox (6-hydroxy-2,5,7,8-tetramethylchroman-2-carboxylic acid). The sensitivity is of the order of the nanomole.
The antioxidant activity studied in this test represents the capacity to specifically trap the superoxide anions by chemiluminescence.
The quantified results are expressed in equivalent Trolox (standard), i.e. in “μg of product for 1 μg of Trolox”. This signifies that a quantity x of sample is required to obtain an activity equivalent to the activity detected for 1 μg of standard. It is an anti-oxidant power relative to a reference, which can be determined independently of the tested concentration.
The superoxide radical: O2^o^− is generated by a photochemical reaction: L+hv(UV)+O2→L*O2→L^o^++O2^o^− • L*: luminol in the excited state L^o+: luminol radical Detection of the Signal:
Part of the superoxide anions is quenched by anti-oxidants. The remaining free radicals are quantified by chemiluminescence. L^o^++O2^o^−→N2+[…]→AP^2−+hv(luminescence) AP*^2−: aminophthalate in the excited state

B16-F10 cells = test: Melanin assay test in B16-F10 cells; format: cell-based, murine; conditions: for IC50: Mus musculus, B16-F10, 0.1 μM α-MSH stimulated, 72 hours treatment, read-out: Results activity B16-F10 IC50 (50% melanin synthesis inhibition); for Results activity B16-F10, percentage of activity on melanin synthesis: negative value indicates an inhibition
Procedure: This involves a test of measuring the synthesis of melanin by colorimetric assay on a murine melanoma cell line: the B16-F10 line. This test enables the depigmenting power of active ingredients to be evaluated.
The B16-F10 cells are cultured in 96-well plates in DMEM medium, supplemented with FCS (foetal calf serum), and incubated 24 hours at 37° C., 5% CO2. The cells are then stimulated with 0.1 μM α-MSH (to stimulate the synthesis of melanin, the stimulation observed is around 150%) and treated 72 hours with the active ingredients to be tested. Each concentration of active ingredient is tested at least in triplicate. The total melanin followed by the intracellular melanin dissolved in the lysis buffer are then assayed by absorbance reading at 405 nm. The total proteins are assayed in the lysate and the results are expressed in mg melanin/mg proteins. The percentage of activity is calculated as follows:
[formula] A negative value indicates an inhibition, whereas a positive value indicates an induction of the synthesis of melanin. General Experimental Conditions: • Equipment: • CO2 cell incubator (Heraeus), Oven, Centrifuge (Heraeus), Laminar air flow fume hood, 96-well clear bottomed plates—Falcon, sterile cones—Treff Lab, Polylabo, Mithras LB940 (Berthold Technologies)-154/MIPA/003 Biological Equipment: • B16-F10 cell line between P10 and P20 (murine melanocytes) (ATCC, CRL-6475) • Reagents • DMEM without phenol red (GIBCOBRL, 31053-028), 200 mM Glutamax-I Supplement (GIBCOBRL, 35050-038), D-PBS (GIBCOBRL, 14190-094), Foetal calf serum (Invitrogen, 10270-098), Trypsine-EDTA (GIBCOBRL, 25300-054), NaOH (Sigma, S8045-500G), DMSO (Sigma, 471267-1L), Nle, Phe—Melanocyte Stimulating Hormone (Sigma, M-8764), Melanin (Sigma, M-0418), BCA-COPPER (SIGMA, B9643 AND C2284), BSA (SIGMA, P0914) B) Test for the Study of the Antioxidant Capacity by Chemiluminescence (Photochem Analytik Jena) Principle: […]

Row | SMILES | μg of sample for 1 μg of Trolox [2] | IC50 (B16-F10 cells) | also measured
1 | O=C(O)CCCC[C@@H]1CCSS1 (racemic) [Lipoic acid] | – | – | Activity (scale for interpreting the results) [1]: Nil; μg sample for 1 μg of Trolox (scale for interpreting the results) [1]: Negative
2 | Cc1cc(C(C)(C)C)c(O)c(C(C)(C)C)c1 [BHT] | – | – | Activity (scale for interpreting the results) [1]: Good; μg sample for 1 μg of Trolox (scale for interpreting the results) [1]: 3.01 to 50 μg sample for 1 μg of Trolox
3 | N[C@@H](CS)C(=O)O [Cysteine] | – | – | Activity (scale for interpreting the results) [1]: Medium; μg sample for 1 μg of Trolox (scale for interpreting the results) [1]: 50.1 to 1000 μg sample for 1 μg of Trolox
4 | COc1cc(C2C3=C(CC(C)(C)CC3=O)OC3=C2C(=O)CC(C)(C)C3)ccc1O [Example 1, 9-(4-hydroxy-3-methoxyphenyl)-3,3,6,6-tetramethyl-3,4,5,6,7,9-hexahydro-1H-xanthene-1,8(2H)-dione] | 2.1 μg of sample for 1 μg of Trolox | 50 µM | –
5 | CC1(C)CC(=O)C2=C(C1)OC1=C(C(=O)CC(C)(C)C1)C2c1ccc(O)c(O)c1 [Example 2, 9-(3,4-dihydroxyphenyl)-3,3,6,6-tetramethyl-3,4,5,6,7,9-hexahydro-1H-xanthene-1,8(2H)-dione] | 0.03 μg of sample for 1 μg of Trolox | 20 µM | –
6 | COc1cc(C2C3=C(CC(C)(C)CC3=O)OC3=C2C(=O)CC(C)(C)C3)cc(OC)c1O [Example 3, 9-(4-hydroxy-3,5-dimethoxyphenyl)-3,3,6,6-tetramethyl-3,4,5,6,7,9-hexahydro-1H-xanthene-1,8(2H)-dione] | 0.72 μg of sample for 1 μg of Trolox | 45 µM | –
7 | O=C1CC(c2ccccc2)CC2=C1C(c1ccc(O)c(O)c1)C1=C(CC(c3ccccc3)CC1=O)O2 (centres unmarked) [Example 4, 9-(3,4-dihydroxyphenyl)-3,6-diphenyl-3,4,5,6,7,9-hexahydro-1H-xanthene-1,8(2H)-dione] | 0.001 μg of sample for 1 μg of Trolox | 7 µM | –
8 | CC1(C)CC(=O)C2=C(C1)OC1=C(C(=O)CC(C)(C)C1)C2c1cc(C(C)(C)C)c(O)c(C(C)(C)C)c1 [Example 5, 9-(3,5-di-tert-butyl-4-hydroxyphenyl)-3,3,6,6-tetramethyl-3,4,5,6,7,9-hexahydro-1H-xanthene-1,8(2H)-dione] | 50 μg of sample for 1 μg of Trolox | 2 µM | –
9 | COc1cc(C2C3=C(CC(c4ccccc4)CC3=O)OC3=C2C(=O)CC(c2ccccc2)C3)ccc1O (centres unmarked) [Example 6, 9-(4-hydroxy-3-methoxyphenyl)-3,6-diphenyl-3,4,5,6,7,9-hexahydro-1H-xanthene-1,8(2H)-dione] | 2.46 μg of sample for 1 μg of Trolox | 6 µM | –
10 | CCCCC/C=C\C/C=C\CCCCCCCC(=O)Oc1ccc(C2C3=C(CC(C)(C)CC3=O)OC3=C2C(=O)CC(C)(C)C3)cc1OC [Example 7, (9Z,12Z)-2-methoxy-4-(3,3,6,6-tetramethyl-1,8-dioxo-2,3,4,5,6,7,8,9-octahydro-1H-xanthen-9-yl)phenyl octadeca-9,12-dienoate] | 19.7 μg of sample for 1 μg of Trolox | – | –
11 | CC1(C)CC(=O)C2=C(C1)OC1=C(C(=O)CC(C)(C)C1)C2c1ccc(O)cc1 [Example 9, 9-(4-hydroxyphenyl)-3,3,6,6-tetramethyl-3,4,5,6,7,9-hexahydro-1H-xanthene-1,8(2H)-dione] | 7.39 μg of sample for 1 μg of Trolox | 37 µM | –
12 | Cc1cc(C2C3=C(CC(C)(C)CC3=O)OC3=C2C(=O)CC(C)(C)C3)cc(C)c1O [Example 10, 9-(4-hydroxy-3,5-dimethylphenyl)-3,3,6,6-tetramethyl-3,4,5,6,7,9-hexahydro-1H-xanthene-1,8(2H)-dione] | 4.10 μg of sample for 1 μg of Trolox | – | –
13 | COc1cc(C2C3=C(CCCC3=O)OC3=C2C(=O)CCC3)ccc1O [Example 11, 9-(4-hydroxy-3-methoxyphenyl)-3,4,5,6,7,9-hexahydro-1H-xanthene-1,8(2H)-dione] | 1.07 μg of sample for 1 μg of Trolox | – | –
14 | COc1cc(C2C3=C(CC(C(C)C)CC3=O)OC3=C2C(=O)CC(C(C)C)C3)ccc1O (centres unmarked) [Example 12, 9-(4-hydroxy-3-methoxyphenyl)-3,6-diisopropyl-3,4,5,6,7,9-hexahydro-1H-xanthene-1,8(2H)-dione] | 1.64 μg of sample for 1 μg of Trolox | 16 µM | –
15 | COc1cc(C2C3=C(CC(c4ccc(OC)c(OC)c4)CC3=O)OC3=C2C(=O)CC(c2ccc(OC)c(OC)c2)C3)ccc1O (centres unmarked) [Example 14, 3,6-bis(3,4-dimethoxyphenyl)-9-(4-hydroxy-3-methoxyphenyl)-3,4,5,6,7,9-hexahydro-1H-xanthene-1,8(2H)-dione] | 2.27 μg of sample for 1 μg of Trolox | – | –
16 | CCOc1cc(C2C3=C(CC(C)(C)CC3=O)OC3=C2C(=O)CC(C)(C)C3)ccc1O [Example 15, 9-(3-ethoxy-4-hydroxyphenyl)-3,3,6,6-tetramethyl-3,4,5,6,7,9-hexahydro-1H-xanthene-1,8(2H)-dione] | 1.79 μg of sample for 1 μg of Trolox | 19 µM | –
17 | COc1cc(C2C3=C(CC(C)(C)CC3=O)OC3=C2C(=O)CC(C)(C)C3)cc(Cl)c1O [Example 16, 9-(3-chloro-4-hydroxy-5-methoxyphenyl)-3,3,6,6-tetramethyl-3,4,5,6,7,9-hexahydro-1H-xanthene-1,8(2H)-dione] | 5.20 μg of sample for 1 μg of Trolox | – | Results activity B16-F10, percentage of activity on melanin synthesis (B16-F10 cells; 20 μM): −31% to 20 μM
18 | COc1cc(C2C3=C(CC(C)(C)CC3=O)OC3=C2C(=O)CC(C)(C)C3)cc(Br)c1O [Example 17, 9-(3-bromo-4-hydroxy-5-methoxyphenyl)-3,3,6,6-tetramethyl-3,4,5,6,7,9-hexahydro-1H-xanthene-1,8(2H)-dione] | 5.18 μg of sample for 1 μg of Trolox | – | –
19 | COc1cc(C2C3=C(CC(C)(C)CC3=O)OC3=C2C(=O)CC(C)(C)C3)cc(I)c1O [Example 18, 9-(4-hydroxy-3-iodo-5-methoxyphenyl)-3,3,6,6-tetramethyl-3,4,5,6,7,9-hexahydro-1H-xanthene-1,8(2H)-dione] | 4.66 μg of sample for 1 μg of Trolox | – | –
20 | COc1cc(C2C3=C(CC(C)(C)CC3=O)OC3=C2C(=O)CC(C)(C)C3)cc(O)c1O [Example 19, 9-(3,4-dihydroxy-5-methoxyphenyl)-3,3,6,6-tetramethyl-3,4,5,6,7,9-hexahydro-1H-xanthene-1,8(2H)-dione] | 0.02 μg of sample for 1 μg of Trolox | – | Results activity B16-F10, percentage of activity on melanin synthesis (B16-F10 cells; 10 μM): −22% to 10 μM
21 | CC(=O)Oc1ccc(C2C3=C(CC(c4ccccc4)CC3=O)OC3=C2C(=O)CC(c2ccccc2)C3)cc1OC(C)=O (centres unmarked) [Example 26, 4-(1,8-dioxo-3.6-diphenyl-2,3,4,5,6,7,8,9-octahydro-1H-xanthen-9-yl)-1,2-phenylene diacetate] | – | – | Results activity B16-F10, percentage of activity on melanin synthesis (B16-F10 cells; 20 μM): −28% to 20 μM
22 | CC(=O)Oc1ccc(C2C3=C(CC(C)(C)CC3=O)OC3=C2C(=O)CC(C)(C)C3)cc1OC(C)=O [Example 27, 4-(3,3,6,6-tetramethyl-1,8-dioxo-2,3,4,5,6,7,8,9-octahydro-1H-xanthen-9-yl)-1,2-phenylene diacetate] | 0.096 μg of sample for 1 μg of Trolox | – | –
23 | O=C1O[C@H]([C@@H](O)CO)C(O)=C1O [Vitamin C] | – | – | Activity (scale for interpreting the results) [1]: Very good; μg sample for 1 μg of Trolox (scale for interpreting the results) [1]: 0.1 to 3.0 μg sample for 1 μg of Trolox
